Laboratory results published in ChEMBL document CHEMBL1151945 (J Med Chem, 2009).

Experiments:
[1] = molecular target: T1, Dihydrofolate reductase (Escherichia coli) (UniProt P0ABQ4); experiment: Inhibition of Escherichia coli dihydrofolate reductase at 27 uM
T1 sequence (whole entry): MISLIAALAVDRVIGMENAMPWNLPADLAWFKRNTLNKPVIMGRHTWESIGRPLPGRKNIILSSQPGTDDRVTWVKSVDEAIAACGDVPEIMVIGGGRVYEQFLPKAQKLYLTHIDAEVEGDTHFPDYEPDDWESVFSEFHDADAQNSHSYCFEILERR

[2] = molecular target: Thymidylate synthase (Homo sapiens, UniProt P04818)
[3] = molecular target: Thymidylate synthase (Escherichia coli, UniProt C3SWJ7)
[4] = molecular target: T2, Bifunctional dihydrofolate reductase-thymidylate synthase (Toxoplasma gondii, UniProt Q07422)
T2 sequence (Q07422 whole entry): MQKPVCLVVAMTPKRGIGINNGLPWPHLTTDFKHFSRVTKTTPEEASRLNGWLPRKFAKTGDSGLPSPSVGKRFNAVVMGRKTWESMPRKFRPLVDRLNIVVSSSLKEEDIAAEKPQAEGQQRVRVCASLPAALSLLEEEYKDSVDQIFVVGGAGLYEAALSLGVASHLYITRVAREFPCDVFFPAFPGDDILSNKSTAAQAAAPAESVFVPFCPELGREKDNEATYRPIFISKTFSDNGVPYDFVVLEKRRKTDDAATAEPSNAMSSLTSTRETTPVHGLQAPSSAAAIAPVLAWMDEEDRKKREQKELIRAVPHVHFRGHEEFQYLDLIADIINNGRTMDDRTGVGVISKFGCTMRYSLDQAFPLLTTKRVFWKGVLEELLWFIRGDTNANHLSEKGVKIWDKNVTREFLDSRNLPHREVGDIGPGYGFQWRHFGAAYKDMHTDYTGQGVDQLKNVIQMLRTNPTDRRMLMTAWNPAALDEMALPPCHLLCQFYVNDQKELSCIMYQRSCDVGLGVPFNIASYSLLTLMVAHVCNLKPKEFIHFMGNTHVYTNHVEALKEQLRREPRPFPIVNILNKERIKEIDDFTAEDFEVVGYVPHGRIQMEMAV

[5] = molecular target: T3, Dihydrofolate reductase (Homo sapiens, UniProt P00374)
T3 sequence (P00374 whole entry): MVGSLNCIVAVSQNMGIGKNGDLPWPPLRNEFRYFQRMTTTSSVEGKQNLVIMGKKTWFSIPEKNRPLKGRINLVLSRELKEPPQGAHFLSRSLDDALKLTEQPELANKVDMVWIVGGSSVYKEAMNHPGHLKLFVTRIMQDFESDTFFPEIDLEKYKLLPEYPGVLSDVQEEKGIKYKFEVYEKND

[6] = molecular target: T2, Bifunctional dihydrofolate reductase-thymidylate synthase; remark: listed apart in the source
[7] = tested on: CCRF-CEM; experiment: cells; settings: Homo sapiens
[8] = tested on: MOLT-4; experiment: cells; settings: Homo sapiens
[9] = tested on: NCI-H460; experiment: cells; settings: Homo sapiens
[10] = cells; settings: Homo sapiens, NCI-H525
[11] = tested on: NCI-H23; experiment: cells; settings: Homo sapiens
[12] = tested on: HCC 2998; experiment: cells; settings: Homo sapiens
[13] = tested on: HCT-116; experiment: cells; settings: Homo sapiens
[14] = tested on: LOX IMVI; experiment: cells; settings: Homo sapiens
[15] = tested on: M14; experiment: cells; settings: Homo sapiens
[16] = tested on: OVCAR-8; experiment: cells; settings: Homo sapiens
[17] = cells; settings: Homo sapiens, 786-0
[18] = tested on: SN12C; experiment: cells; settings: Homo sapiens
[19] = molecular target: T1, Dihydrofolate reductase (Escherichia coli); experiment: Inhibition of Escherichia coli dihydrofolate reductase at […]
[20] = molecular target: Thymidylate synthase (Escherichia coli) (UniProt C3SWJ7); experiment: Inhibition of Escherichia coli thymidylate synthase at 23 uM
[21] = molecular target: T1, Dihydrofolate reductase (Escherichia coli); experiment: Inhibition of Escherichia coli dihydrofolate reductase at 28 uM
[22] = molecular target: T4, Bifunctional dihydrofolate reductase-thymidylate synthase (Toxoplasma gondii) (UniProt Q07422); settings: 23 uM
T4 sequence (whole entry): T2 sequence (Q07422 whole entry)

[23] = molecular target: T1, Dihydrofolate reductase (Escherichia coli); experiment: Inhibition of Escherichia coli dihydrofolate reductase at 3 uM
[24] = molecular target: T1, Dihydrofolate reductase (Escherichia coli); experiment: Inhibition of Escherichia coli dihydrofolate reductase at 31 uM
[25] = tested on: HL-60(TB); experiment: cells; settings: Homo sapiens

Sequence of Thymidylate synthase (Escherichia coli, UniProt C3SWJ7) (C3SWJ7 whole entry): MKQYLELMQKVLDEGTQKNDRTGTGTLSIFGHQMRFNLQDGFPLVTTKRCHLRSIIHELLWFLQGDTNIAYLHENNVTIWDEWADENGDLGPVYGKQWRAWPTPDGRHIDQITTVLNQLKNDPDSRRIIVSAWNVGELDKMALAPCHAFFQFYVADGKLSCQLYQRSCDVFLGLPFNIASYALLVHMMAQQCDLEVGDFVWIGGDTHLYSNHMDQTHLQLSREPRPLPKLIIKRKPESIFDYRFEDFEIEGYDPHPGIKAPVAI
Sequence of Thymidylate synthase (Homo sapiens, UniProt P04818) (P04818 whole entry): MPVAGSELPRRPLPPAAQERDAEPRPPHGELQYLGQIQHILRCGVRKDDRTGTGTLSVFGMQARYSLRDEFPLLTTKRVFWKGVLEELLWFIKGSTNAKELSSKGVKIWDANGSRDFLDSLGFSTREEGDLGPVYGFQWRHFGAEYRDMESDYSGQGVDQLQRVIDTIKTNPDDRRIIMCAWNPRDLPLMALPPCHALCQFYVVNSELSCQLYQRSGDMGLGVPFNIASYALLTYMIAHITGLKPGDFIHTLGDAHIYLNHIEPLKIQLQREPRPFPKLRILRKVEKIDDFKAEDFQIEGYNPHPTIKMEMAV
Sequence of Thymidylate synthase (Escherichia coli) (C3SWJ7 1-264): as the sequence (C3SWJ7 whole entry) above

SMILES	IC50 [2]	IC50 [3]	IC50 [4]	IC50 [5]	IC50 [6]	other results
CCc1sc2nc(N)[nH]c(=O)c2c1Sc1cc(OC)cc(OC)c1	1200 nM	1800 nM	2300 nM	540 nM	24 nM	inhibition [1]: 0%
Cc1sc2nc(N)[nH]c(=O)c2c1Sc1ccc(C(=O)N[C@@H](CCC(=O)O)C(=O)O)cc1	–	–	–	–	–	GI50 [7]: 94500 nM; GI50 [8]: > 100000 nM; GI50 [9]: 41200 nM; GI50 [10]: > 100000 nM; GI50 [11]: > 100000 nM; GI50 [12]: > 100000 nM; GI50 [13]: > 100000 nM; GI50 [14]: 65600 nM; GI50 [15]: > 100000 nM; GI50 [16]: > 100000 nM; GI50 [17]: > 100000 nM; GI50 [18]: > 100000 nM
CCc1sc2nc(N)[nH]c(=O)c2c1Sc1cc(Cl)cc(Cl)c1	690 nM	1200 nM	1600 nM	280 nM	14 nM	inhibition [19]: 0%
CCc1sc2nc(N)[nH]c(=O)c2c1Sc1ccc2ccccc2c1	2300 nM	1400 nM	1100 nM	2200 nM	8.4 nM	–
CCc1sc2nc(N)[nH]c(=O)c2c1Sc1ccncc1	–	2000 nM	1700 nM	350 nM	17 nM	–
CCc1sc2nc(N)[nH]c(=O)c2c1Sc1cc(OC)ccc1OC	4600 nM	> 23000 nM	–	840 nM	14 nM	inhibition [20]: 11%; inhibition [21]: 0%; inhibition [22]: 29%
CCc1sc2nc(N)[nH]c(=O)c2c1Sc1cccc(Cl)c1	380 nM	2300 nM	1800 nM	300 nM	12 nM	inhibition [23]: 0%
CCc1sc2nc(N)[nH]c(=O)c2c1Sc1ccc(F)cc1	1300 nM	2900 nM	2600 nM	620 nM	25 nM	inhibition [24]: 15%
CCc1sc2nc(N)[nH]c(=O)c2c1Sc1ccccc1Cl	1100 nM	2000 nM	2500 nM	600 nM	27 nM	–
CCc1sc2nc(N)[nH]c(=O)c2c1Sc1ccc(C(=O)N[C@@H](CCC(=O)O)C(=O)O)cc1	54 nM	18 nM	90 nM	19 nM	2.1 nM	GI50 [7]: 853 nM; GI50 [25]: 497 nM; GI50 [8]: 4780 nM; GI50 [9]: 959 nM; GI50 [10]: 7800 nM; GI50 [11]: 9400 nM; GI50 [12]: 965 nM; GI50 [13]: 284 nM; GI50 [14]: 90.9 nM; GI50 [15]: 4320 nM; GI50 [16]: 579 nM; GI50 [17]: 817 nM; GI50 [18]: 3310 nM
CCc1sc2nc(N)[nH]c(=O)c2c1Sc1ccc(Br)cc1	390 nM	2200 nM	2200 nM	260 nM	13 nM	–
CCc1sc2nc(N)[nH]c(=O)c2c1Sc1ccc(Cl)cc1	750 nM	2500 nM	–	300 nM	–	–
CCc1sc2nc(N)[nH]c(=O)c2c1Sc1ccccc1	5600 nM	28000 nM	8400 nM	2600 nM	33 nM	–
CCc1sc2nc(N)[nH]c(=O)c2c1Sc1ccc([N+](=O)[O-])cc1	220 nM	1700 nM	1000 nM	260 nM	8.7 nM	–
CCc1sc2nc(N)[nH]c(=O)c2c1Sc1ccc(Cl)c(Cl)c1	230 nM	2300 nM	1000 nM	290 nM	8.1 nM	–
